Data as given in publication PMC4552634, “A New Set of Chemical Starting Points with Plasmodium falciparum Transmission-Blocking Potential for Antimalarial Drug Discovery” (PLoS ONE, 2015).
Where two headings read alike, the source gives them in different places.

Key:
[1] = test system: P. falciparum stage V gametocytes; assay: Gametocytocidal ATP bioluminescence assay (single point 5 μM and 1 μM, dose-response); type: cell-based, Plasmodium falciparum; conditions: for Ratio IC50 HepG2/IC50 P. falciparum: IC50 HepG2 divided by IC50 P. falciparum gametocytes
Description: Purified stage IV-V gametocytes were obtained as previously described [10]. Single point ATP bioluminescence assay and dose–response of positive hits was determined in accordance with the previously published protocol [10].

[2] = test system: luciferase reaction (BacTiter-Glo); assay: Interference assay (inhibition of the BacTiter-Glo luciferase reaction); type: biochemical; parameters: concentration or dose not given beside the values; conditions: ATP interference assay
Description: To discard possible false-positive results, we performed an interference assay in parallel. […] […]. The ATP solution was made by dissolving ATP powder (ATP standard from the ATPlite 1 step assay kit, reference 6016731, Perkin Elmer) in culture medium. The positive control used was the Luciferase Inhibitor I Calbiochem (Merck, 119113) at 100 μM.

HepG2 cells = assay: Cytotoxicity in HepG2 cells (intracellular ATP, ATPlite, 48 h); type: cell-based, human; conditions: HepG2 cells; IC50 per ratio column head; unit inferred
[3] = test system: P. falciparum asexual stages; conditions: asexual stages; TCAMS data; read-out: IC50 asexual; cited from earlier work
[4] = P. falciparum gametocytes, average, read-out: IC50 Pf Gametocytes average, IC50 (µM) average
[5] = sexual stages (gametocytes), dose-response, read-out: IC50 sexual

Structure (SMILES) | Ratio IC50 HepG2/IC50 P. falciparum [1] | IC50 [1, 4] [µM] | IC50 [1, 5] [µM] | % Control luminiscence [2] [%] | IC50 (HepG2 cells) [nM] | IC50 [3] [nM]
CCCOc1ccc(CCNCCCCNCCc2ccc(OCCC)c3ccccc23)c2ccccc12 [TCMDC-137952] | 31 | 0.08 | 0.083 | 100 | 2600 | 917
COc1ccc(CCNCCCCNCCc2ccc(OC)c3ccccc23)c2ccccc12 [TCMDC-137961] | <0.6 | > 5 | – | 95 | 3140 | 453
CCOCn1c(-c2ccccc2)cc2c3c(N)nc(N)nc3ccc21 [TCMDC-137979] | 4.35 | 1.3 | – | 94 | 5650 | 186
Cc1ccc(C(=O)Nc2ccc(Nc3ccnc4cc(-c5ccccn5)ccc34)cc2O)cc1 [TCMDC-138205] | 6.48 | 0.48 | – | 100 | 3110 | 111
CN(C)CCNCc1cccc(-c2ccc3c(Nc4ccc(Oc5ccccn5)cc4)ccnc3c2)c1 [TCMDC-138493] | 20 | 0.22 | – | 100 | 4490 | 233
CS(=O)(=O)CCNCc1nc(-c2ccc3c(=O)[nH]cnc3c2)cs1 [TCMDC-138539] | 1.57 | 2.68 | – | 98 | 4200 | 1010
CN1CCN(CCCNCc2cccc(Nc3nccc(Nc4ccc(Oc5ccccc5)cc4)n3)c2)CC1 [TCMDC-138616] | 16 | 0.32 | – | 100 | 5170 | 765
O=C(NCCCCN1CCC(c2ccc3c(c2OCCO)CCCC3)CC1)c1ccc2oc(-c3ccc(C(F)(F)F)cc3)cc2c1 [TCMDC-138771] | 10 | 0.63 | – | 97 | 6590 | 340
CCCCCCCN1CC[C@@H](CCCc2ccnc3ccc(OC)cc23)[C@@H](CCN)C1 [TCMDC-139278] | 11 | 0.27 | 0.267 | 100 | 2980 | 748
O=C(Nc1ccc(Oc2ccccc2)cc1)N(CCN1CCCC1)Cc1ccc(-c2ccc(CN3CCNCC3)cc2)cc1 [TCMDC-139652] | 7 | 1.02 | 1.01 | 93 | 7080 | 892
CC(Cc1ccc(CNC(=O)c2ccc(CC(C)NCCc3cccc(Cl)c3)cc2)cc1)NCCc1cccc(Cl)c1 (stereo not drawn) [TCMDC-139659] | 5.53 | 0.57 | – | 98 | 3150 | 696
CC(Cc1ccc(C(=O)Nc2ccc(CC(C)NCCc3cccc(Cl)c3)cc2)cc1)NCCc1ccc(C(F)(F)F)cc1 (stereo not drawn) [TCMDC-139790] | 11 | 0.31 | 0.307 | 100 | 3300 | 570
CC(CCCCCC(=O)Nc1ccc(CC(C)NCCc2cccc(Cl)c2)cc1)NCCc1cccc(Cl)c1 (stereo not drawn) [TCMDC-139800] | 7.38 | 0.43 | 0.433 | 100 | 3200 | 948
CCCCCCCN1CC[C@@H](CCCc2ccnc3ccc(OCCN4CCNCC4)cc23)[C@@H](CC)C1 [TCMDC-139817] | 12 | 0.57 | 0.567 | 94 | 6750 | 771
O=C(/C=C/c1ccc(Cl)c(Cl)c1)N1CCC(CCN2CCC(c3c[nH]c4cnccc34)CC2)CC1 [TCMDC-140136] | 36 | 0.2 | – | 100 | 7210 | 119
Cc1cccc2[nH]cc(C3CCN(CC4CCC(NC(=O)/C=C/c5ccc(Cl)c(Cl)c5)CC4)CC3)c12 (stereo not drawn) [TCMDC-140137] | 2 | 1.45 | 1.45 | 100 | 2950 | 163
CC(C)CNCc1cccc(-c2ccc(CN(CCCN3CCN(C)CC3)C(=O)/C=C/c3ccccc3)cc2)c1 [TCMDC-140545] | 11 | 0.63 | – | 100 | 6650 | 857
CC(C)CNCc1ccc(-c2ccc(CN(CCCN3CCN(C)CC3)C(=O)/C=C/c3ccccc3)cc2)cc1 [TCMDC-140546] | 7 | 1 | 1 | 100 | 6990 | 917
CC(C)CNCc1ccc(-c2cccc(CN(CCN(C)C)C(=O)CCC3CCCC3)c2)cc1 [TCMDC-140553] | 10 | 0.54 | – | 100 | 5500 | 809
CN1CCN(CCCN(Cc2cccc(-c3cccc(CNC4CCCC4)c3)c2)C(=O)CCC2CCCC2)CC1 [TCMDC-140555] | 9 | 0.81 | 0.807 | 100 | 7500 | 675
CC(C)CNCc1ccc(-c2ccc(CN(CCCN3CCN(C)CC3)C(=O)CCC3CCCC3)cc2)cc1 [TCMDC-140559] | 10 | 0.54 | – | 100 | 5390 | 1060
CN1CCN(CCCN(Cc2ccc(-c3ccc(CNC4CCCC4)cc3)cc2)C(=O)CCC2CCCC2)CC1 [TCMDC-140560] | 11 | 0.53 | 0.535 | 100 | 6000 | 886
CC(C)CNCc1cccc(-c2cccc(CN(CCCN3CCN(C)CC3)C(=O)NC3CCCCC3)c2)c1 [TCMDC-140633] | 9 | 1.78 | 1.78 | 96 | 16800 | 761
CC(C)CC(=O)N(Cc1ccc(-c2ccc(CNC3Cc4ccccc4C3)cc2)cc1)C1CCNCC1 [TCMDC-141449] | 10 | 0.63 | 0.633 | 100 | 6200 | 1170
O=C(COc1ccccc1)N(Cc1ccc(-c2ccc(CNC3Cc4ccccc4C3)cc2)cc1)C1CCNCC1 [TCMDC-141450] | 8 | 0.99 | 0.987 | 100 | 7800 | 1010
CN1CCC(C(=O)N(Cc2ccc(-c3ccc(CNCCc4ccccc4)cn3)cc2)C2CCN(Cc3ccccc3)CC2)CC1 [TCMDC-141552] | 10 | 0.9 | 0.897 | 95 | 9270 | 787
CCN(CC)CCN(Cc1ccc(-c2ccc(C(F)(F)F)cc2)cc1)C(=O)c1ccc(-c2ccc(NC(=O)OC)cc2C)cc1 [TCMDC-141558] | 1.46 | 3.71 | 3.71 | 100 | 5400 | 929
